The target in assay [1] is EGFR (UniProt P00533).
Assay [2] has as its target MAPK14 (UniProt Q16539). Put plainly: p38 Binding Asssy.
For assay [3], the target named is MAPK14 (UniProt Q16539). The assay can be described thus: p38-alpha 2 Inhibition. Particulars: concentration not given here.
Assay [4] has as its target EGFR (human) (UniProt P00533).
Assay [5] addresses EGFR (human) (UniProt P00533). Particulars: a549.
Assay [6] concerns the target EGFR (human) (UniProt P00533). Particulars: a431.
In assay [7] the target is MAPK14 (human) (UniProt Q16539). The assay can be described thus: Enzyme Assay.
The target of assay [8] is EGFR (human) (UniProt P00533). The source holds these as a separate data set.
The target of assay [9] is EGFR (UniProt P00533). The source holds these as a separate data set.
In assay [10] the target is EGFR (mouse) (UniProt P00533). The settings on record: balb/mk cells.
The target in assay [11] is EGFR (mouse) (UniProt P00533). Particulars: nih3t3/c7.
Assay [12] deals with EGFR (human) (UniProt P00533). This is another data set of the same source.
Assay [13] concerns the target EGFR (human) (UniProt P00533). The source holds these as a separate data set.
In assay [14] the target is EGFR (human) (UniProt P00533). This is another data set of the same source.
In assay [15] the target is PIK3CA (human), P42336 [Wild-Type]. Put plainly: Assessment of Proliferation of NZB5 Cells Expressing Wild-Type PIK3CA Kinase.
Assay [16] deals with EGFR (UniProt P00533). This is another data set of the same source.
Assay [17] concerns the target CDK2 (human) (UniProt P24941). Put plainly: Enzyme Assay.
For assay [18], the target named is CDK2 (human) (UniProt P24941). The assay can be described thus: Enzyme Assay. The source holds these as a separate data set.
For assay [19], the target named is EGFR (murine) (UniProt P00533). The settings on record: nih3t3.
For assay [20], the target named is EGFR (mouse) (UniProt P00533). Particulars: swiss 3t3 fibroblast.
Assay [21] deals with EGFR (UniProt P00533). The source holds these as a separate data set.
The target of assay [22] is MAPK14 (human) (UniProt Q16539). Put plainly: Enzyme Assay. This is another data set of the same source.
Assay [23] has as its target EGFR (UniProt P00533). The source holds these as a separate data set.
Assay [24] has as its target EGFR (human) (UniProt P00533). Particulars: a431. This is another data set of the same source.
Assay [25] has as its target EGFR (human) (UniProt P00533). The settings on record: a431. This is another data set of the same source.
Assay [26] addresses EGFR (human) (UniProt P00533). The source holds these as a separate data set.
In assay [27] the target is EGFR (human) (UniProt P00533). This is another data set of the same source.

The structures appear in SMILES notation. Several values for one entry are separate records, joined by “and”; a condition that tells them apart may be missing. Equal values may be shown once.

Chain of MAPK14 (human) (Q16539 whole entry, looked up): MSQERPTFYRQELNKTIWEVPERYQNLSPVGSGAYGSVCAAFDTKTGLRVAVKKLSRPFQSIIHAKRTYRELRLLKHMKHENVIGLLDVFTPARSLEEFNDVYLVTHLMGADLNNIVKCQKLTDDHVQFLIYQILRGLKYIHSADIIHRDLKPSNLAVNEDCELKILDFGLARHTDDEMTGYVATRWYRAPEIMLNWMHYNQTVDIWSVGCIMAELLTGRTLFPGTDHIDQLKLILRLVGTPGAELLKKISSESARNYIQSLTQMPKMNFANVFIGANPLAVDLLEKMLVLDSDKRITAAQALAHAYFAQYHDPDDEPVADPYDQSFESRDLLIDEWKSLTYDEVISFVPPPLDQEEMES
Chain of EGFR (P00533 whole entry, looked up): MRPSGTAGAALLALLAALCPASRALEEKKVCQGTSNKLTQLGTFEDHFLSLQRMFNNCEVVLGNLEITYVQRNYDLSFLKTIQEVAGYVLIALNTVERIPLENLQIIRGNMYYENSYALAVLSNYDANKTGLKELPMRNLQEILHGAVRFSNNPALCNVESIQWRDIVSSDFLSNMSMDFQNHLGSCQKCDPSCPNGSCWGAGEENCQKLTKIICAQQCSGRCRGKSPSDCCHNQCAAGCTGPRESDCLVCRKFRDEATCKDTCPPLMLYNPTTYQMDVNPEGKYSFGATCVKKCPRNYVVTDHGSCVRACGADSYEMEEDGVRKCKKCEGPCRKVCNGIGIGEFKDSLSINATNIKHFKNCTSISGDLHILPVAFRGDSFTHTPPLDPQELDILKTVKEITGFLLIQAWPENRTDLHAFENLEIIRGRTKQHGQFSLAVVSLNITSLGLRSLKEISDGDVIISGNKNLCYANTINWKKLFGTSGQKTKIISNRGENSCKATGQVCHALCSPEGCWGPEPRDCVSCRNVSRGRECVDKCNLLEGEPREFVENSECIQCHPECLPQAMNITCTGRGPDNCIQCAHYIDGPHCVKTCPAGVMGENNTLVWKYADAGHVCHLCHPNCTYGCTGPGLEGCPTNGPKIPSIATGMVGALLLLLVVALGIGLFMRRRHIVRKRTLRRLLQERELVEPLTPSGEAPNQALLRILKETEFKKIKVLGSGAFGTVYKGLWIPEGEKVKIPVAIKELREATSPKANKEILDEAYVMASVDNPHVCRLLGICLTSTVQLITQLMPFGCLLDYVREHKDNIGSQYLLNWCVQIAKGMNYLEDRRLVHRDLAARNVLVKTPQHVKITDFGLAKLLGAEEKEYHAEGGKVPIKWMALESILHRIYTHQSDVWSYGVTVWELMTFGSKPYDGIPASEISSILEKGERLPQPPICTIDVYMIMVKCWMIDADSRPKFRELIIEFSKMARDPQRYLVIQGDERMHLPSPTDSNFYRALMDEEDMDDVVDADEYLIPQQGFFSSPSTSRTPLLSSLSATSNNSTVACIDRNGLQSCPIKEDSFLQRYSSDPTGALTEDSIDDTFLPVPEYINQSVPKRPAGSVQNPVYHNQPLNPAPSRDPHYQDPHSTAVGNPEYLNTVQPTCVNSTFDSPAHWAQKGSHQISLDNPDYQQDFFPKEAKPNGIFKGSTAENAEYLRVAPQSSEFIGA
Chain of EGFR (human) (P00533 whole entry, looked up): as above
Chain of MAPK14 (Q16539 whole entry, looked up): as the sequence (Q16539 whole entry, looked up) above
Chain of PIK3CA (human), P42336 [Wild-Type] (P42336 whole entry, looked up): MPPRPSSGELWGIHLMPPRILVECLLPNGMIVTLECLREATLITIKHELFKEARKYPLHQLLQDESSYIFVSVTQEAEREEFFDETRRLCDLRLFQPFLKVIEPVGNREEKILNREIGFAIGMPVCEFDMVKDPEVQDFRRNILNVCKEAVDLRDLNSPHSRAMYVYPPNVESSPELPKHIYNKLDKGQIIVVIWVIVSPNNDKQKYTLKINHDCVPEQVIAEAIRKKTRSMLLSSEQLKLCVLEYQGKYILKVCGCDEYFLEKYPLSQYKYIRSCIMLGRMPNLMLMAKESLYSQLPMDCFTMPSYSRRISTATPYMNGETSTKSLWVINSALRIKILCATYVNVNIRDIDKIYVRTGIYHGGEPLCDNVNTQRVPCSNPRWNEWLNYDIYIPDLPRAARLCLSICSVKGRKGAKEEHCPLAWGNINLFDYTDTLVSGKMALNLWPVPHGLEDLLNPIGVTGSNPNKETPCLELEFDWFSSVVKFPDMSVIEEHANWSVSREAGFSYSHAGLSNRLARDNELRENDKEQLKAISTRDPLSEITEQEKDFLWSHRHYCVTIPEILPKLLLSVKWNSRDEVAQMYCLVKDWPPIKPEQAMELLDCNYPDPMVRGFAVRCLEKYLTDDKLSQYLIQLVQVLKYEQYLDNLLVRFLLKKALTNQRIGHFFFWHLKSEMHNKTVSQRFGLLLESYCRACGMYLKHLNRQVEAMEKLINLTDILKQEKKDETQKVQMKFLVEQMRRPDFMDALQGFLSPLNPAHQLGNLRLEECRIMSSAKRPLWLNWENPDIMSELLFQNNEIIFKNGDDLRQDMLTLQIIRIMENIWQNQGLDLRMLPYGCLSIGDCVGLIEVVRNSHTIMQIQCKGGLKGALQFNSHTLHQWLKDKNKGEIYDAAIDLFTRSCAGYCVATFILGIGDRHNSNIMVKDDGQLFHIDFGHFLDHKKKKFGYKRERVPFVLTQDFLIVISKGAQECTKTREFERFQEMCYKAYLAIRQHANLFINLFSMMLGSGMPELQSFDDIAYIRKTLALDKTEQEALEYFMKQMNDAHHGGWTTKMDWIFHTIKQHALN
Chain of EGFR (murine) (P00533 whole entry, looked up): as the sequence (P00533 whole entry, looked up) above

The IC50 is the concentration that inhibits the measured activity by half. The low end stands for greater potency in that assay, the high end for weaker potency in that assay. Turning to `CC(C)N(CCC(=O)c1ccc2ccccc2c1)Cc1ccccc1`, in assay [1], the IC50 was determined as 3130 nM. As to `[N-]=[N+]=Nc1ccc(-c2nc(-c3cccc(I)c3)c(-c3ccncc3)[nH]2)cc1`, the IC50 in assay [2] turned out to be 640 nM.

The term inhibition denotes the change of the read-out against control, counted positive when it falls. A lower inhibition goes with a weak effect. `O=C(Nc1cc(C2[C@H]3C[C@@H]4C[C@@H](C[C@H]2C4)C3)no1)Nc1cccc(Cl)c1Cl` (some centres undefined) yielded an inhibition in assay [3] of 9%. Turning to `COc1cc(OC)c2c(=O)n(-c3cccc(C(=O)NC4CCCC4)c3)ccc2c1`, the half-inhibitory concentration (IC50) in assay [4] came to 2120 nM; in assay [5], 18600 nM; in assay [6], 15300 nM. For the compound `Oc1c(-c2ccc(F)cc2)c(-c2ccncc2)nn1-c1ccc(Cl)cc1`, the activity came to 3% in assay [7] (1.0 µM), 0% in assay [7] (10.0 µM), 54% in assay [8] (1.0 µM) and 6% in [8] (10.0 µM). In turn, `O=C(c1cccc2[nH]ccc12)N1CCC(Cc2ccccc2)CC1` registered an IC50 in assay [9] of over 500000 nM. In turn, `C[C@H](NC(=O)c1ccc(S(=O)(=O)Oc2ccc(/C=C/[N+](=O)[O-])cc2)cc1)C(=O)N[C@@H](C)C(=O)NCCN` displayed an IC50 in assay [10] of over 50000 nM. In turn, `Cc1cnc2cc3nc(-c4ccccc4)[nH]c3c(C)c2n1` came in with an IC50 in assay [11] of over 100000 nM. Take `Cc1nc2cc3nc(-c4ccccc4)[nH]c3cc2nc1C`: the IC50 in assay [11] is over 10000 nM. `Cn1c(=O)c(-c2c(Cl)cccc2Cl)cc2cnc(Nc3cccc(Br)c3)nc21`: in [12], the IC50 amounted to 308 nM. `COc1cc2ncnc(Oc3ccc(Br)cc3F)c2cc1OC` gave an IC50 in [13] of 5900 nM.

Compound `O=C(c1c[nH]c2ccccc12)N1CCC(Cc2ccccc2)CC1` had an IC50 in [9] of over 500000 nM. On to `Cc1cc(N2CCOCC2)cc2[nH]c(-c3c(NC[C@@H](O)c4ccccc4Cl)cc[nH]c3=O)nc12`, for which the IC50 in assay [14] amounted to 1600 nM.

With `Oc1cccc2c1nc(C(F)F)n2-c1nc(N2CCOCC2)cc(N2CCOCC2)n1`, the IC50 in [15] was determined as 100 nM. In assay [16], `Cc1cccc(Nc2cc(Nc3cccc(N(C)C)c3OCCO)ncn2)c1` registered an IC50 of 1 nM. As for `CO[C@H]1[C@@H](OC)C[C@H](C)[C@@H](OC)C2=CC(=O)C=C(NC(=O)/C(C)=C/C=C/[C@H](OC)[C@H](OC(N)=O)/C(C)=C/[C@@H]1C)C2=O`, the activity was found to be 104% in assay [17] (1.0 µM), 91% in [17] (10.0 µM), 138% in assay [18] (1.0 µM) and 83% in assay [18] (10.0 µM).

In assay [19], `CC(C)S(=O)(=O)c1csc(NC(=O)Nc2ccc(C(C)(C)C)cc2)c1Cl` came in with an IC50 of over 100000 nM. Consider `Cc1ccc2[nH]c(SSc3[nH]c4ccc(C)cc4c3CCC(=O)O)c(CCC(=O)O)c2c1`, for which the IC50 in assay [20] was over 50000 nM. Compound `COC(=O)c1cc(OCc2cc(OC)ccc2OC)ccc1O` had an IC50 in assay [21] of over 100000 nM. For the compound `Cc1cccc(COc2nc(C)n(-c3cc(-c4ccnc(C(C)(C)O)n4)ccc3C)c(=O)c2Cl)n1`, the IC50 in [22] was > 30000 nM and 3300 nM; in assay [7] it was 184 nM. Regarding `Cn1c(=O)c(-c2c(Cl)cccc2Cl)cc2cnc(Nc3ccccc3)nc21`, the IC50 in assay [23] came out at 78 nM.

For `N#Cc1cnc2ccc(NC(=O)C#CCN3CCSCC3)cc2c1Nc1cccc(Br)c1`, the IC50 in assay [24] amounted to 100 nM. In other words, the sub-micromolar range. On to `COc1cc(O)c2c(=O)n(-c3cccc(C(=O)NC4CCCC4)c3)ccc2c1`, for which the IC50 in assay [4] was determined as 1380 nM; in [5], 14200 nM; in assay [6], 2250 nM. Broadly, the Ki is the dissociation constant of the complex between target and ligand, obtained from inhibition or displacement. Read a high Ki as a looser hold on the target. `Oc1ccc2c(Nc3cccc(Br)c3)ncnc2c1` displayed a Ki in assay [25] of 0.168 nM. This counts as sub-nanomolar.

In the case of `C=CC(=O)Nc1ccc(-n2nc(-c3ccc(Cl)c(Cl)c3)c3c(N)ncnc32)cc1`, the IC50 in [26] was under 100 nM. Compound `CN1CCN(CCCNc2ncc3cc(-c4c(Cl)cccc4Cl)c(=O)n(C)c3n2)CC1` had a 50% inhibitory concentration (IC50) in assay [23] of 8700 nM.

As to `Nc1nc(Nc2cccc(Cl)c2)c2c(n1)[nH]c1ccccc12`, the IC50 in assay [27] is 6 nM.

In assay [26], `CN(C/C=C/C(=O)Nc1cccc(-n2nc(-c3ccc(Cl)cc3)c3c(N)ncnc32)c1)C1CC1` yielded an IC50 of 100 to 1000 nM.

Values taken from the Kinase Knowledgebase extract (Sharma et al. 2016).
